One may read the IC50 as the concentration that inhibits the measured activity by half.

In the test the target is GTPase KRas (Homo sapiens, UniProt P01116, G12C). Kind of test: Inhibition of human KRAS G12C mutant incubated for 2 hrs by scintillation counter based covalent competition assay.

Each structure is given as a SMILES string.

In the case of `C=CC(=O)N1CC2(CC(n3nc(-c4ccc5c(c4)CCN5C(=O)CN4CC[C@H](F)C4)c(-c4c(Cl)c(C)cc5[nH]ncc45)c3C)C2)C1` (stereo in doubt; 76a), the IC50 came out at 0.015 µM. The result for `C=CC(=O)N1CC2(CC(n3nc(-c4ccc5c(c4)CCN5C(=O)CN4CC[C@H](F)C4)c(-c4c(Cl)c(C)cc5[nH]ncc45)c3C)C2)C1` (stereo in doubt; 76b) reads 13.3 µM.

These data come from ChEMBL document CHEMBL5029190, “A Series of Pyrazole Analogs Binding to KRASG12C as Potential Cancer Treatment” (ACS Med Chem Lett, 2022).
